In patent publication EP0624315B1, “Diaryl(pyridinio and isoquinolinio) boron fungicidal agents” (AMERICAN CYANAMID COMPANY, priority 1993, dated 1994):

Tests used:
[1] = tested on: Pyricularia oryzae; assay type: in vivo; conditions: 200 ppm, host plants sprayed, dried, then inoculated
[2] = tested on: Tetranychus urticae (OP-resistant strain), 2-spotted spider mite; test: Acaricide evaluation, 2-spotted spider mite plant dip; assay type: in vivo; conditions: 300 ppm, 2 days, adult kill
Description: (§1) The following tests show the efficacy of the compounds as insecticides and acaricides. The evaluations are conducted with solutions of test compounds dissolved or dispersed in 50/50 acetone/water mixtures. The test compound is technical material dissolved or dispersed in said acetone/water mixtures in sufficient amounts to provide the concentrations set forth in Table I below. All concentrations reported herein are in terms of active ingredient. All tests are conducted in a laboratory maintained at about 27 °C. The rating system employed is as follows:
Sieva lima bean plants with primary leaves expaned to 7 to 8 cm are selected and cut back to one plant per pot. A small piece is cut from a leaf taken from the main colony and placed on each leaf of the test plants. This is done about 2 hours before treatment to allow the mites to move over to the test plant and to lay eggs. The size of the cut piece is varied to obtain about 100 mites per leaf. At the time of the treatment, the piece of leaf used to transfer the mites is removed and discarded. The mite-infested plants are dipped in the test formulation for 3 seconds with agitation and set in the hood to dry. Plants are kept for 2 days before estimates of adult kill are made.

[3] = tested on: Spodoptera eridania 3rd instar larvae, southern army-worm; test: Insecticide evaluation, southern armyworm leaf dip; assay type: in vivo; conditions: 5 days
Description: as §1
A sieva lima bean leaf expanded to 7 to 8 cm in length is dipped in the test suspension with agitation for 3 seconds and placed in a hood to dry. The leaf is then placed in a 100x10 mm petri dish containing a damp filter paper on the bottom and 10 3rd instar caterpillars. The dish is maintained for 5 days before observations are made of mortality, reduced feeding or any interference with normal moulting.

[4] = tested on: Venturia inaequalis; test: In vivo fungicidal evaluation, Apple Scab; conditions: 200 ppm, host plants sprayed, dried, then inoculated; also: ranges in brackets are in %
[5] = tested on: Plasmopara viticola; test: In vivo fungicidal evaluation, Grape Downy Mildew; conditions: 200 ppm, host plants sprayed, dried, then inoculated; also: ranges in brackets are in %
[6] = tested on: Alternaria solani; test: In vivo fungicidal evaluation, Tomato Early Blight; conditions: 200 ppm, host plants sprayed, dried, then inoculated; also: ranges in brackets are in %
[7] = tested on: Botrytis cinerea; test: In vivo fungicidal evaluation, Pepper Botrytis; conditions: 200 ppm, host plants sprayed, dried, then inoculated; also: ranges in brackets are in %
[8] = tested on: Pythium ultimum (Pythul); test: In vitro fungicidal evaluation, mycelial growth inhibition in nutrient broth; assay type: cell-based; conditions: 25 ppm, 3-4 days at 21°C, rated visually; also: ranges in brackets are in %
Description: (§2) Test compounds are dissolved or suspended in acetone and dispersed into cell well plates containing a suspension of ground fungal mycelia in a nutrient broth. Assay plates are incubated for 3-4 days at 21°C. Growth inhibition is measured visually and is rated using the following scale:
(§3) Untreated controls, solvent blanks and reference standards are included in each test.
(§4) Assay fungi include the plant pathogens, Pythium ultimum (Pythul); Rhizoctonia solani (Rhizso); Fusarium oxysporum f. sp. cucumerinum (Fusoxc); and Pseudocercosporella herpotrichoides (Psdche).
(§5) When more than one test is run, the data are averaged. The compouds evaluated are reported by compound number given in Example 5.

[9] = tested on: Pseudocercosporella herpotrichoides (Psdche); test: as above; assay type: cell-based; conditions: 25 ppm, 3-4 days at 21°C, rated visually; also: ranges in brackets are in %
Description: as §2, §3, §4, §5

[10] = tested on: Rhizoctonia solani (Rhizso); test: as above; assay type: cell-based; conditions: 25 ppm, 3-4 days at 21°C, rated visually; also: ranges in brackets are in %
Description: as §2, §3, §4, §5

[11] = tested on: Fusarium oxysporum f. sp. cucumerinum (Fusoxc); test: as above; assay type: cell-based; conditions: 25 ppm, 3-4 days at 21°C, rated visually; also: ranges in brackets are in %
Description: as §2, §3, §4, §5

[12] = tested on: Cercospora beticola; test: In vivo fungicidal evaluation, Sugar Beet Cercospora; conditions: 200 ppm, host plants sprayed, dried, then inoculated; also: ranges in brackets are in %
[13] = tested on: Heliothis virenscens, 3rd instar tobacco budworm; test: Insecticide evaluation, tobacco budworm cotton cotyledon dip; assay type: in vivo; conditions: 300 ppm, 3 days
Description: as §1
Cotton cotyledons are dipped in the test formulation and allowed to dry in a hood. When dry, each is cut into quarters and ten sections placed individually in 30 mL plastic medicine cups containing a 5 to 7 mm long piece of damp dental wick. One 3rd instar caterpillar is added to each cup and a cardboard lid placed on the cup. Treatments are maintained for 3 days before mortality counts and estimates of reduction in feeding damage are made.

[14] = tested on: Diabrotica undecimpunctata howardi, 3rd instar southern corn rootworm; test: Insecticide evaluation, southern corn rootworm soil test; assay type: in vivo; parameters: key: 0 = no effect; 1 = 10-25% kill; 2 = 26-35% kill; 3 = 36-45% kill; 4 = 46-55% kill; 5 = 56-65% kill; 6 = 66-75% kill; 7 = 76-85% kill; 8 = 86-99% kill; 9 = 100% kill; - = No evaluation; conditions: 50 kg/ha (1.25 mg active ingredient per jar), 6 days
Description: as §1
One cc of fine talc is placed in a 30 mL wide-mouth screw-top glass jar. One mL of the appropriate acetone test solution is pipetted onto the talc so as to provide 1.25 mg of active ingredient per jar. The jars are set under a gentle air flow until the acetone is evaporated. The dried talc is loosened, 1 cc of millet seed is added to serve as food for the insects and 25 mL of moist soil is added to each jar. The jars are capped and the contents thoroughly mixed on a Vortex Mixer. Following this, ten 3rd instar rootworms are added to each jar and the jars are loosely capped to allow air exchange for the larvae. The treatments are held for 6 days before mortality counts are made. Missing larvae are presumed dead, since they decompose rapidly and can not be found. The concentration used in this test corresponds to approximately 50 kg/ha.

[15] = tested on: Erysiphe graminis f. sp. tritici; test: In vivo fungicidal evaluation, Wheat Powdery Mildew; conditions: 200 ppm, host plants sprayed, dried, then inoculated; also: ranges in brackets are in %
[16] = tested on: Puccinia recondita f. sp. tritici; test: In vivo fungicidal evaluation, Wheat Leaf Rust; conditions: 200 ppm, host plants sprayed, dried, then inoculated; also: ranges in brackets are in %

## (4-Isopropylpyridinio)methyldiphenylboron [Compound 1]
[1]
  RB (Rice Blast) disease control rating: 7 (90 - 95)
[2]
  OP. Res. Mites kill rating: 8 (8 = 86-99% kill)
[3]; 300 ppm
  Southern Armyworm kill rating: 8 (8 = 86-99% kill)
[4]
  AS (Apple Scab) disease control rating: 9 (100)
[5]
  GDM (Grape Downy Mildew) disease control rating: 9 (100)
[6]
  TEB (Tomato Early Blight) disease control rating: 7 (90 - 95)
[7]
  PB (Pepper Botrytis) disease control rating: 7 (90 - 95)
[8]
  PHTHUL growth inhibition rating: 7 (90 - 99)
[9]
  PSDCHE growth inhibition rating: 9 (100)
[10]
  RHIZSO growth inhibition rating: 9 (100)
[11]
  FUSOXC growth inhibition rating: 9 (100)
[12]
  SBC (Sugar Beet Cercospora) disease control rating: 0 (0)
[13]
  Tobacco Budworm Larvae kill rating: 8 (8 = 86-99% kill)
[14]
  Southern Corn Rootworm kill rating: 0
[15]
  WPM (Wheat Powdery Mildew) disease control rating: 8 (96 - 99)
[16]
  WLR (Wheat Leaf Rust) disease control rating: 8 (96 - 99)

## Methyl(3-methylpyridinio)diphenylboron [Compound 2]
[1]
  RB (Rice Blast) disease control rating: 7 (90 - 95)
[2]
  OP. Res. Mites kill rating: 9 (9 = 100% kill)
[3]; 1000 ppm
  Southern Armyworm kill rating: 9 (9 = 100% kill)
[4]
  AS (Apple Scab) disease control rating: 9 (100)
[5]
  GDM (Grape Downy Mildew) disease control rating: 9 (100)
[6]
  TEB (Tomato Early Blight) disease control rating: 0 (0)
[7]
  PB (Pepper Botrytis) disease control rating: 0 (0)
[8]
  PHTHUL growth inhibition rating: 9 (100)
[9]
  PSDCHE growth inhibition rating: 9 (100)
[10]
  RHIZSO growth inhibition rating: 9 (100)
[11]
  FUSOXC growth inhibition rating: 9 (100)
[12]
  SBC (Sugar Beet Cercospora) disease control rating: 0 (0)
[14]
  Southern Corn Rootworm kill rating: 9 (9 = 100% kill)
[15]
  WPM (Wheat Powdery Mildew) disease control rating: 8 (96 - 99)
[16]
  WLR (Wheat Leaf Rust) disease control rating: 8 (96 - 99)

## (4-Bromoisoquinolinio)bis(p-fluorophenyl)methylboron [Compound 14]
[1]
  RB (Rice Blast) disease control rating: 8 (96 - 99)
[2]
  OP. Res. Mites kill rating: 9 (9 = 100% kill)
[3]; 1000 ppm
  Southern Armyworm kill rating: 9 (9 = 100% kill)
[4]
  AS (Apple Scab) disease control rating: 8 (96 - 99)
[5]
  GDM (Grape Downy Mildew) disease control rating: 7 (90 - 95)
[6]
  TEB (Tomato Early Blight) disease control rating: 0 (0)
[7]
  PB (Pepper Botrytis) disease control rating: 9 (100)
[8]
  PHTHUL growth inhibition rating: 9 (100)
[9]
  PSDCHE growth inhibition rating: 9 (100)
[10]
  RHIZSO growth inhibition rating: 9 (100)
[11]
  FUSOXC growth inhibition rating: 9 (100)
[12]
  SBC (Sugar Beet Cercospora) disease control rating: 7 (90 - 95)
[14]
  Southern Corn Rootworm kill rating: 5 (5 = 56-65% kill)
[15]
  WPM (Wheat Powdery Mildew) disease control rating: 0 (0)
[16]
  WLR (Wheat Leaf Rust) disease control rating: 0 (0)

## C[B-](c1ccccc1)(c1ccccc1)[n+]1cccc(Br)c1 [Compound 18, (3-Bromopyridinio)methyldiphenylboron]
[1]
  RB (Rice Blast) disease control rating: 5 (60 - 74)
[2]
  OP. Res. Mites kill rating: 7 (7 = 76-85% kill)
[3]; 1000 ppm
  Southern Armyworm kill rating: 9 (9 = 100% kill)
[4]
  AS (Apple Scab) disease control rating: 0 (0)
[5]
  GDM (Grape Downy Mildew) disease control rating: 4 (45 - 59)
[6]
  TEB (Tomato Early Blight) disease control rating: 4 (45 - 59)
[7]
  PB (Pepper Botrytis) disease control rating: 8 (96 - 99)
[8]
  PHTHUL growth inhibition rating: 7 (90 - 99)
[9]
  PSDCHE growth inhibition rating: 9 (100)
[10]
  RHIZSO growth inhibition rating: 7 (90 - 99)
[11]
  FUSOXC growth inhibition rating: 7 (90 - 99)
[12]
  SBC (Sugar Beet Cercospora) disease control rating: 6 (75 - 89)
[14]
  Southern Corn Rootworm kill rating: 0
[15]
  WPM (Wheat Powdery Mildew) disease control rating: 0 (0)
[16]
  WLR (Wheat Leaf Rust) disease control rating: 0 (0)

## (Isoquinolinio)methyldiphenylboron [Compound 6]
[1]
  RB (Rice Blast) disease control rating: 6 (75 - 89)
[2]
  OP. Res. Mites kill rating: 8 (8 = 86-99% kill)
[3]; 300 ppm
  Southern Armyworm kill rating: 9 (9 = 100% kill)
[4]
  AS (Apple Scab) disease control rating: 9 (100)
[5]
  GDM (Grape Downy Mildew) disease control rating: 9 (100)
[6]
  TEB (Tomato Early Blight) disease control rating: 0 (0)
[7]
  PB (Pepper Botrytis) disease control rating: 0 (0)
[8]
  PHTHUL growth inhibition rating: 9 (100)
[9]
  PSDCHE growth inhibition rating: 9 (100)
[10]
  RHIZSO growth inhibition rating: 7 (90 - 99)
[11]
  FUSOXC growth inhibition rating: 9 (100)
[12]
  SBC (Sugar Beet Cercospora) disease control rating: 0 (0)
[13]
  Tobacco Budworm Larvae kill rating: 8 (8 = 86-99% kill)
[14]
  Southern Corn Rootworm kill rating: 9 (9 = 100% kill)
[15]
  WPM (Wheat Powdery Mildew) disease control rating: 8 (96 - 99)
[16]
  WLR (Wheat Leaf Rust) disease control rating: 9 (100)

## (3-Ethyl-4-methylpyridinio)methyldiphenylboron [Compound 5]
[1]
  RB (Rice Blast) disease control rating: 0 (0)
[2]
  OP. Res. Mites kill rating: 8 (8 = 86-99% kill)
[3]; 1000 ppm
  Southern Armyworm kill rating: 9 (9 = 100% kill)
[4]
  AS (Apple Scab) disease control rating: 0 (0)
[5]
  GDM (Grape Downy Mildew) disease control rating: 9 (100)
[6]
  TEB (Tomato Early Blight) disease control rating: 8 (96 - 99)
[7]
  PB (Pepper Botrytis) disease control rating: 0 (0)
[8]
  PHTHUL growth inhibition rating: 9 (100)
[9]
  PSDCHE growth inhibition rating: 9 (100)
[10]
  RHIZSO growth inhibition rating: 9 (100)
[11]
  FUSOXC growth inhibition rating: 9 (100)
[12]
  SBC (Sugar Beet Cercospora) disease control rating: 0 (0)
[14]
  Southern Corn Rootworm kill rating: 9 (9 = 100% kill)
[15]
  WPM (Wheat Powdery Mildew) disease control rating: 9 (100)
[16]
  WLR (Wheat Leaf Rust) disease control rating: 8 (96 - 99)
